Results from publication PMC6829864, “Determination of Ligand Profiles for Pseudomonas aeruginosa Solute Binding Proteins” (International Journal of Molecular Sciences, 2019).
Values joined by “and” are separate entries in the source; they are usually repeats but may differ in a detail not shown here. Equal values may be shown once. “Also recorded” adds a separate entry of the source. Where a SMILES comes first, the peptide text is derived from it.

Experiments:
PA2338 = PA2338 (Pseudomonas aeruginosa, UniProt Q9I1E0); test: Isothermal titration calorimetry, PA2338; format: binding, Pseudomonas aeruginosa PAO1; settings: 25 °C
PA0222 [1] = biological target: T1, PA0222 (Pseudomonas aeruginosa, UniProt Q9I6R6); test: Isothermal titration calorimetry, PA0222; format: binding, Pseudomonas aeruginosa PAO1; settings: 25 °C
T1 sequence (Q9I6R6 29-352): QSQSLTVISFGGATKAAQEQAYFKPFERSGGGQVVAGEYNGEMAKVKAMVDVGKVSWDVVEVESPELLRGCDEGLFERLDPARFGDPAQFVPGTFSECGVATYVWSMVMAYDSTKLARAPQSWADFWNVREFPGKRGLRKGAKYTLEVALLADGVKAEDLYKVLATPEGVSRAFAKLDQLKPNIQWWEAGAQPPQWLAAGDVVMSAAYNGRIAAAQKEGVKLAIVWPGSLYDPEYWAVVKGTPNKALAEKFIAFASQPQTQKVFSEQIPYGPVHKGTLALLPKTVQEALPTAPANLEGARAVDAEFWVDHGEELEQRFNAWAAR

PA0222 [2] = biological target: T1, PA0222; format: binding; settings: Tm change vs ligand-free protein
PA2592 [3] = biological target: T2, PA2592 (Pseudomonas aeruginosa, UniProt Q9I0P5); test: biochemical; format: binding
T2 sequence (Q9I0P5 20-367): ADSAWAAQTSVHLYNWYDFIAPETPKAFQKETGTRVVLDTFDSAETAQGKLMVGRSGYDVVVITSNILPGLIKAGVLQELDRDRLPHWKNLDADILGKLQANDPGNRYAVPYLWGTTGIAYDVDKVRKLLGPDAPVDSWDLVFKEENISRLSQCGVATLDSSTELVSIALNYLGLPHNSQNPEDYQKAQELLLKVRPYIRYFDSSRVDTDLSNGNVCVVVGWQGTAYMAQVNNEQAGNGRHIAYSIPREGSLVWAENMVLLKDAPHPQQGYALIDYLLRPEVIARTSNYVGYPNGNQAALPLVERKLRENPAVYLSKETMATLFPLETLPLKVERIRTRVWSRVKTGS

PA2592 [4] = biological target: T2, PA2592; test: DSF thermal shift ligand screening, PA2592; format: binding, Pseudomonas aeruginosa PAO1; settings: arrays PM2A, PM3B, PM5
PA4500 (dppA3) [5] = biological target: T3, PA4500 (dppA3) (Pseudomonas aeruginosa, UniProt Q9HVS1); test: Isothermal titration calorimetry, PA4500; format: binding, Pseudomonas aeruginosa PAO1; settings: 25 °C; for Kd: read-out: KD by ITC (converted)
PA4500 (dppA3) [6] = biological target: T3, PA4500 (dppA3); test: DSF thermal shift ligand screening, PA4500; format: binding, Pseudomonas aeruginosa PAO1; settings: arrays PM3B, PM6, PM7, PM8
PA3610 (potD) [7] = biological target: T4, PA3610 (potD) (Pseudomonas aeruginosa, UniProt Q9HY16); test: Isothermal titration calorimetry, PA3610; format: binding, Pseudomonas aeruginosa PAO1; settings: 25 °C; for Kd: read-out: KD by ITC (converted)
PA3889 (opuCC) [8] = biological target: T5, PA3889 (opuCC) (Pseudomonas aeruginosa, UniProt Q9HXC4); test: Isothermal titration calorimetry, PA3889; format: binding, Pseudomonas aeruginosa PAO1; settings: 25 °C
PA4913 = PA4913 (Pseudomonas aeruginosa, UniProt Q9HUQ0); test: DSF thermal shift ligand screening, PA4913; format: binding, Pseudomonas aeruginosa PAO1; settings: Tm change vs ligand-free protein
[9] = test system: Pseudomonas aeruginosa PAO1; format: cell-based; settings: chemoeffector 1 mM; for Chemotaxis: capillary assay, 30 min; for Chemotaxis / Chemotaxis response in words: except molybdate 0.1 mM
PA1074 (braC) = PA1074 (braC) (Pseudomonas aeruginosa, UniProt P21175); test: biochemical; format: binding, Pseudomonas aeruginosa PAO1
PA3889 (opuCC) [10] = biological target: T5, PA3889 (opuCC); test: DSF thermal shift ligand screening, PA3889; format: binding, Pseudomonas aeruginosa PAO1; settings: Tm change vs ligand-free protein
PA1342 (aatJ) = biological target: T6, PA1342 (aatJ) (Pseudomonas aeruginosa, UniProt Q9I402); format: binding; settings: 25 °C
T6 sequence (Q9I402 24-302): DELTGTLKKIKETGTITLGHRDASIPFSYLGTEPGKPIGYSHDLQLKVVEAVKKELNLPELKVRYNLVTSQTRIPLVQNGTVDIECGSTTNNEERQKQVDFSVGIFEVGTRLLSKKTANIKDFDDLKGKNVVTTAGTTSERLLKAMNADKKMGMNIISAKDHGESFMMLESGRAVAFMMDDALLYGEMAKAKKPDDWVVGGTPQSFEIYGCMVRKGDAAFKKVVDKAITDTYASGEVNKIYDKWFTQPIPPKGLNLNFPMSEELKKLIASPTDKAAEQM

PA1863 (modA) = PA1863 (modA) (Pseudomonas aeruginosa, UniProt Q9I2N2); test: biochemical; format: binding, Pseudomonas aeruginosa PAO1
PA1493 (cysP) = PA1493 (cysP) (Pseudomonas aeruginosa, UniProt Q9I3L9); test: biochemical; format: binding, Pseudomonas aeruginosa PAO1; settings: PA1493 (cysP); 25 °C
PA3610 (potD) [11] = biological target: T4, PA3610 (potD); test: DSF thermal shift ligand screening, PA3610; format: binding, Pseudomonas aeruginosa PAO1; settings: Tm change vs ligand-free protein
[12] = biological target: PA4500 (DppA3) solute binding protein of Pseudomonas aeruginosa PAO1 (Pseudomonas aeruginosa PAO1) (UniProt Q9HVS1); test: differential scanning fluorimetry thermal shift assay
[13] = biological target: PA4500 (DppA3) (Pseudomonas aeruginosa PAO1) (UniProt Q9HVS1); test: ITC
Chain of PA4500 (DppA3) (Pseudomonas aeruginosa PAO1) (Q9HVS1 25-533): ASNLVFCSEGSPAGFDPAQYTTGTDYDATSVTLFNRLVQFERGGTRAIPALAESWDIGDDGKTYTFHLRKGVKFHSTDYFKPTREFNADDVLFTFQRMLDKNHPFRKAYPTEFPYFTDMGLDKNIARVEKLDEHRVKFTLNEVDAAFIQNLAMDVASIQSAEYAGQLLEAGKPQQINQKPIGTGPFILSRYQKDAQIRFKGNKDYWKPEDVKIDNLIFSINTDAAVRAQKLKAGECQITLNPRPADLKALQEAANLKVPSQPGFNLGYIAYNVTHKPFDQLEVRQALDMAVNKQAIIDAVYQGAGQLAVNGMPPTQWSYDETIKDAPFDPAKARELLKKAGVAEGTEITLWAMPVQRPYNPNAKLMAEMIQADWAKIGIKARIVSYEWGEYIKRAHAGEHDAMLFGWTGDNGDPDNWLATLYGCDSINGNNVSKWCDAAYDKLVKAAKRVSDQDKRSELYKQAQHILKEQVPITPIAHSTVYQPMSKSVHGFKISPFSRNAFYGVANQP

T5 sequence (Q9HXC4 24-311): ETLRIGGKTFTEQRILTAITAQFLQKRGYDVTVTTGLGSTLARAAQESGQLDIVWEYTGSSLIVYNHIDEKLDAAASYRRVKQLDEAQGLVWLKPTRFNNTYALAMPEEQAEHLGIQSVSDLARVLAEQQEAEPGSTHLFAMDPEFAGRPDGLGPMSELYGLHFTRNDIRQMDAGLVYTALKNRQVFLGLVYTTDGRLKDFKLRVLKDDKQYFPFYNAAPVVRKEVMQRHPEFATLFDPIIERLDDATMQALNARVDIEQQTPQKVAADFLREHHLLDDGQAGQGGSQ
Chain of PA1074 (braC) (P21175 27-373): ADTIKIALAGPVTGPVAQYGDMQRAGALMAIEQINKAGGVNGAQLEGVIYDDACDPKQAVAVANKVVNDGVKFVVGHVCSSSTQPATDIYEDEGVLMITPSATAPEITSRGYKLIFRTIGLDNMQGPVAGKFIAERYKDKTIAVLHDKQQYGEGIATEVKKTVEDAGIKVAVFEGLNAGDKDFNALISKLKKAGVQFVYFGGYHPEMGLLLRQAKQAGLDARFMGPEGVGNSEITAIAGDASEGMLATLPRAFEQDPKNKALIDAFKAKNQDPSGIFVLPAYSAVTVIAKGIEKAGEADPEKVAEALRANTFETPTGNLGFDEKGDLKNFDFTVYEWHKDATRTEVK
T4 sequence (Q9HY16 21-354): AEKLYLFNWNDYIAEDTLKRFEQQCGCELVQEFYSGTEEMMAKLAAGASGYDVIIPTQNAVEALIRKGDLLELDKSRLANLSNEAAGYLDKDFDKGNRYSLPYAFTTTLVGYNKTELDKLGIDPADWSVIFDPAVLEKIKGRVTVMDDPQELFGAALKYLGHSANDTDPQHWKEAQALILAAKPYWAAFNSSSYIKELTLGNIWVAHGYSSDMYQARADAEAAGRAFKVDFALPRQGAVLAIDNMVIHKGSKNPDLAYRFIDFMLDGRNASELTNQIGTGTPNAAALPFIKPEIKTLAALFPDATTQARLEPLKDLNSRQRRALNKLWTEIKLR
Chain of PA4913 (Q9HUQ0 28-374): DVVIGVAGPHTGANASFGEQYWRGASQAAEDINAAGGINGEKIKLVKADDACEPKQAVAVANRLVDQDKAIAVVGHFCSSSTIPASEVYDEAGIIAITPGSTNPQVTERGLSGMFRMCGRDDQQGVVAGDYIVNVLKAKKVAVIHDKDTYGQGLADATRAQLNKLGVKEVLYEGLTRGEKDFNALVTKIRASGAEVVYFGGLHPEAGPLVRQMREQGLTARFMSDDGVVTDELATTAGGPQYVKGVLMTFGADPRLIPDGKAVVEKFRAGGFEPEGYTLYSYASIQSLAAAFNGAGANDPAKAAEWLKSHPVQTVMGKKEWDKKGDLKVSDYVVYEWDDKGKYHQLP
Chain of PA1863 (modA) (Q9I2N2 24-251): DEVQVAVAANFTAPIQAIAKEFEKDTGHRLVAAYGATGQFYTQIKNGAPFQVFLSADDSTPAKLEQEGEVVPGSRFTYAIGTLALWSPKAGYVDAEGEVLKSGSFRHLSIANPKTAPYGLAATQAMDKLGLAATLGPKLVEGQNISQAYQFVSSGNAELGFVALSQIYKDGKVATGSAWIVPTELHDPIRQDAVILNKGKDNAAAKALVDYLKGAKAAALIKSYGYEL
Chain of PA1493 (cysP) (Q9I3L9 23-332): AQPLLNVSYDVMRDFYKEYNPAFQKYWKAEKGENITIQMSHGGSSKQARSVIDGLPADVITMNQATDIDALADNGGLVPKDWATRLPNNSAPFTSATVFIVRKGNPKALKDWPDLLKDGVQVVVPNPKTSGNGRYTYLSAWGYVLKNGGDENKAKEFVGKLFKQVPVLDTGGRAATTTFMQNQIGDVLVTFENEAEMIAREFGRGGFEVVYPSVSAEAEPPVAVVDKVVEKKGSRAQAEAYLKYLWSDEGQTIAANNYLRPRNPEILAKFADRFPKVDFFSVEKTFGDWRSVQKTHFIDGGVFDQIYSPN
T3 sequence (Q9HVS1 25-533): as the sequence (Q9HVS1 25-533) above
Chain of PA4500 (DppA3) solute binding protein of Pseudomonas aeruginosa PAO1 (Pseudomonas aeruginosa PAO1) (Q9HVS1 25-533): as above
Chain of PA2338 (Q9I1E0 23-436): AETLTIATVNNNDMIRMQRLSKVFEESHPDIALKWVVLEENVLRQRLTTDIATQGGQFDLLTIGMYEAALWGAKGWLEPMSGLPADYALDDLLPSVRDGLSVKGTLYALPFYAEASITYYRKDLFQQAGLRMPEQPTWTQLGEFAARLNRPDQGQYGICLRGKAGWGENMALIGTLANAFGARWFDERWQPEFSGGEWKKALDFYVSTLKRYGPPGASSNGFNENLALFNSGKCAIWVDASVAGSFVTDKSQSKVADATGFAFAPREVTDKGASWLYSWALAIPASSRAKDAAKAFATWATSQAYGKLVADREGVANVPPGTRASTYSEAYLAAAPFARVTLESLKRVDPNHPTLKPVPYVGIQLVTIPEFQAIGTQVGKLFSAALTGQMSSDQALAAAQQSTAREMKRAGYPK

## OC[C@H]1O[C@H](O[C@H]2[C@H](O)[C@@H](O)C(O)O[C@@H]2CO)[C@H](O)[C@@H](O)[C@@H]1O (mixture of isomers) [Maltose]
PA2338
  No Binding Observed by ITC: absence of maltose binding

## CC(N)CCC(=O)O (centres unmarked) [4-aminovalerate, 4-aminovaleric acid]
PA0222 [1]
  KD by ITC: No binding
  No Binding Observed by ITC: failed to bind
PA0222 [2]
  Tm DSF (Tm increase): 2.2 °C

## NCCCCN=C(N)N [Agmatine]
PA2592 [3]
  Kd: 15000 nM
PA2592 [4]
  Tm DSF (Tm increase): 5.3 °C

## C[C@H](N)C(=O)N[C@@H](C)C(=O)O [Ala-Ala] (H-Ala-Ala-OH)
PA4500 (dppA3) [5]
  Kd: 210 ± 20 nM
PA4500 (dppA3) [6]
  Tm DSF (Tm increase): 11 °C and 11.3 °C

## C[C@H](N)C(=O)N[C@@H](Cc1c[nH]cn1)C(=O)O [Ala-His] (H-Ala-His-OH; N-terminus and C-terminus assumed)
PA4500 (dppA3) [5]
  Kd: 7400 nM
PA4500 (dppA3) [6]
  Tm DSF (Tm increase): 3.0 °C

## C[C@H](N)C(=O)N[C@@H](Cc1ccccc1)C(=O)O [Ala-Phe]
PA4500 (dppA3) [5]
  Kd: 6100 nM
PA4500 (dppA3) [6]
  Tm DSF (Tm increase): 2.0 °C

## C[C@H](N)C(=O)N[C@H](C(=O)O)[C@@H](C)O [Ala-Thr] (H-Ala-Thr-OH; N-terminus and C-terminus assumed)
PA4500 (dppA3) [5]
  Kd: 980 nM
PA4500 (dppA3) [6]
  Tm DSF (Tm increase): 7 °C

## CCCC(=O)O [Butyrate, butyric acid]
PA0222 [1]
  No Binding Observed by ITC: failed to bind

## NCCCCCN [Cadaverine]
PA3610 (potD) [7]
  Kd: 65000 nM

## C[N+](C)(C)CCO [Choline]
PA3889 (opuCC) [8]
  No Binding Observed by ITC: no binding heats were observed

## C[C@@H](N)C(=O)O [D-Ala]
PA4913
  Tm DSF (Tm increase): 6.8 °C
[9]
  Chemotaxis: Yes [15, 41] Yes [15, 41] Yes [15, 41] Yes [15, 41] Yes [15, 41] Yes Yes [15, 41] n. d. (Positive chemotaxis was considered when the number of bacterial cells per capillary was superior to 5000.)
  Chemotaxis response in words: very strong taxis
PA1074 (braC)
  No Binding Observed by ITC: no binding was detected

## NCCCC(=O)O [GABA, γ-amino-butyric acid]
PA0222 [2]
  Tm DSF (Tm increase): 9.6 °C

## CC(C)[C@H](NC(=O)CN)C(=O)O [Gly-Val] (H-Gly-Val-OH)
PA4500 (dppA3) [5]
  Kd: 6300 nM
PA4500 (dppA3) [6]
  Tm DSF (Tm increase): 2.0 °C

## C[N+](C)(C)CC(=O)O [Glycine-betaine]
PA3889 (opuCC) [10]
  Tm DSF (Tm increase): 3.2 °C
[9]
  Chemotaxis response in words: very strong taxis
PA3889 (opuCC) [8]; read-out: KD by ITC
  Kd: 3000 ± 400 nM

## NCCc1c[nH]cn1 [Histamine]
PA2592 [3]; PA2592, 25 °C
  KD by ITC: No binding
  No Binding Observed by ITC: no binding
PA3610 (potD) [7]
  No Binding Observed by ITC: did not reveal any binding
PA0222 [1]
  No Binding Observed by ITC: failed to bind; also recorded: no measurable affinity
PA2592 [4]
  Tm DSF (Tm increase): 3.9 °C

## C[C@H](N)C(=O)O [L-Ala]
PA4913
  Tm DSF (Tm increase): 12.7 °C
PA4500 (dppA3) [5]
  No Binding Observed by ITC: absence of binding
PA1074 (braC)
  Kd: 210 nM

## NC(=O)C[C@H](N)C(=O)O [L-Asn]
PA1342 (aatJ)
  No Binding Observed by ITC: No binding was observed

## NC(=O)CC[C@H](N)C(=O)O [L-Gln]
PA1342 (aatJ)
  No Binding Observed by ITC: No binding was observed

## N[C@@H](CCO)C(=O)O [L-Homoserine]
[9]; corrected for buffer capillaries
  Chemotaxis response, number of cells per capillary: more than 300,000 cells per capillary
PA1074 (braC)
  Kd: 720 nM

## CC[C@H](C)[C@H](N)C(=O)O [L-Ile]
PA1074 (braC)
  Kd: 280 nM

## CC(C)[C@H](N)C(=O)O [L-Val]
PA4913
  Tm DSF (Tm increase): 4.1 °C
PA1074 (braC)
  Kd: 70 nM

## C[N+](C)(C)C[C@H](O)CC(=O)[O-] [L-carnitine]
PA3889 (opuCC) [10]
  Tm DSF (Tm increase): 2.8 °C
[9]
  Chemotaxis: Yes Yes (Positive chemotaxis was considered when the number of bacterial cells per capillary was superior to 5000.)
  Chemotaxis response in words: very strong taxis
PA3889 (opuCC) [8]
  KD by ITC: No binding
  No Binding Observed by ITC: no binding heats were observed

## [O]=[Mo](=[O])([O-])[O-] [Molybdate]
PA1863 (modA); Affinity by ITC, PA1863 (modA), value as printed in text
  Kd: ~10 nM
PA1863 (modA); KD by ITC, PA1863 (modA), 25 °C
  Kd: 10 nM
PA1493 (cysP)
  No Binding Observed by ITC: did not show any binding

## NCCCCN [Putrescine]
PA2592 [3]
  Kd: 31000 ± 4000 nM
PA3610 (potD) [7]
  Kd: 4800 ± 400 nM
PA3610 (potD) [11]
  Tm DSF (Tm increase): 13 n. d.^2 °C
PA3610 (potD) [11]; listed as putrescine
  Tm DSF (Tm increase): 13 °C
PA0222 [1]
  No Binding Observed by ITC: no measurable affinity
PA2592 [4]
  Tm DSF (Tm increase): 4.4 °C

## NCCCCNCCCN [Spermidine]
PA2592 [3]; PA2592, 25 °C
  No Binding Observed by ITC: no binding
PA3610 (potD) [7]
  No Binding Observed by ITC: did not reveal any binding
PA3610 (potD) [11]
  Tm DSF (Tm increase): did not stabilize the protein
PA0222 [1]
  No Binding Observed by ITC: failed to bind; also recorded: no measurable affinity

## [O]=[V]([O-])([O-])[O-] [Vanadate]
PA1863 (modA)
  No Binding Observed by ITC: did not reveal any binding

## [O]=[Mn](=[O])([O-])[O-] [manganate]
PA1863 (modA)
  No Binding Observed by ITC: did not reveal any binding

## O=[Se](O)O [selenite]
PA1493 (cysP)
  No Binding Observed by ITC: did not show any binding

## CCC(N)C(=O)O (stereo not drawn) [α-aminobutyrate]
PA4913
  Tm DSF (Tm increase): 8.1 °C

## Ala-Ala (peptide)
[12]
  Tm increase (DSF): 11.3 °C
[13]
  Ka: 4.71e+06 M⁻¹

## Ala-His (peptide)
[12]
  Tm increase (DSF): 3 °C
[13]
  Ka: 134000 M⁻¹

## Ala-Phe (peptide)
[12]
  Tm increase (DSF): 2 °C
[13]
  Ka: 162000 M⁻¹

## Ala-Thr (peptide)
[12]
  Tm increase (DSF): 7 °C
[13]
  Ka: 1.09e+06 M⁻¹

## Gly-Val (peptide)
[12]
  Tm increase (DSF): 2 °C
[13]
  Ka: 157000 M⁻¹

## Tungstate
PA1863 (modA); PA1863 (modA), 25 °C
  KD by ITC: ultra-tightly; also recorded: Ultratight
[9]
  Chemotaxis: No (Positive chemotaxis was considered when the number of bacterial cells per capillary was superior to 5000.)

## phosphate
PA1493 (cysP)
  No Binding Observed by ITC: did not show any binding
